Data set [1] is described as follows: Geometric particle size of rifampicin blends and starting materials (HELOS laser diffraction, RODOS). Type of data set: physicochemical. The conditions noted are these: Table 3; for X10 / X50 / X90: particle size distribution. The procedure: The geometric particle size of the powder blends was measured using laser diffraction (HELOS, Sympatec, Germany) for the pre-blend and after each blending cycle. Measurements were done using a RODOS powder disperser at a pressure drop of 1 bar and rotor speed set at 50% (FIG. 6). […] The particles diameter is expressed as the mean Xn diameter values, where n % of the particles have a diameter≤X. Jaffari, S., et al. Rapid Characterisation of the Inherent Dispersibility of Respirable Powders Using Dry Dispersion Laser Diffraction. Int. J. Pharm. […] A measure of particle size distribution breadth is represented by the calculated factor “Span”. This was calculated using the following expression: (X90−X10)/X50.
Particle size analysis was conducted on blended materials and compared to pre-blend and lactose/magnesium stearate controls.

Data set [2] in a line: Particle size of budesonide blend starting materials (HELOS/RODOS laser diffraction). As to conditions: RODOS laser diffraction, 3 bar, 50% rotation. Type of data set: physicochemical. The procedure:
Particle size distribution of alpha-lactose monohydrate, magnesium stearate and budesonide were analyzed using a laser diffractometer (Sympatec, Clausthal-Zellerfeld, Germany). […] About 0.5 g of each component was carefully loaded on the turntable of the vibratory feeding module. Samples were dispersed at 3 bar and 50% rotation (FIG. 11). Data was acquired using Windox software (Sympatec, Clausthal-Zellerfeld, Germany) and volume-based size distribution was calculated using Fraunhofer theory.
Table 6 lists the particle size distribution for starting materials as determined by laser diffraction. Budesonide was confirmed to be sufficiently micronized (e.g. less than 5 μm). Magnesium stearate and lactose size distributions were within the size ranges provided by manufacturers.

`O.OC[C@H]1O[C@@H](O[C@H]2[C@H](O)[C@@H](O)[C@@H](O)O[C@@H]2CO)[C@H](O)[C@@H](O)[C@H]1O` [Lactohale 206]: in data set [1], the X10 was 1.91 μm, the X50 is 4.15 μm and the X90 came to 116.14 μm.

With `O.OC[C@H]1O[C@@H](O[C@H]2[C@H](O)[C@@H](O)[C@@H](O)O[C@@H]2CO)[C@H](O)[C@@H](O)[C@H]1O` [Lactose, Alpha-lactose monohydrate], in data set [2], the D10 was 32.09 μm, the D50 amounted to 80.34 μm and the D90 is 111.84 μm.

Take Magnesium stearate: in data set [1], the “Span ((X90-X10)/X50)” value was 1.87, the X10 is 2.08 μm, the X50 was determined as 8.14 μm and the X90 was 17.34 μm. Besides, in data set [2], the D10 stood at 1.29 μm, the D50 is 4.45 μm and the D90 was 9.93 μm.

The record behind these values is patent publication US20250235399A1, “METHODS OF PREPARING CARRIER-BASED DRY POWDERS FOR INHALATION” (Board of Regents, The University of Texas System, priority 2022, published 2025).
